21 compounds from US20230203060A1 (GENFLEET THERAPEUTICS (SHANGHAI) INC., priority 2020, published 2023) can be followed below.

For orientation: IC50 means the concentration that inhibits the measured activity by half.

Structures can show the parent of a compound that is named as a salt.

In the experiment the test system is KRAS G12C mutant NCI-H358 cells. The experiment can be described thus: Cell proliferation inhibition experiment, 3D spheroid, CellTiter-Glo, NCI-H358. The experiment is classed as cell-based, human. The conditions noted are these: Homo sapiens, NCI-H358, 120 h, NCI-H358 (KRAS G12C mutant) 3D spheroid, 5 days with compound, CellTiter-Glo; read-out: H358 IC50. The source says: Raw materials and instruments: NCI-H358 purchased from ATCC; article number: CRL-5807; batch number: 70010825; A549 purchased from ATCC; article number: CCL-185; batch number: 70007820; RPMI1640 purchased from Gibco; article number: 11875-093; batch number: 2152748; F-12K purchased from Gibco; article number: 21127-022; batch number: 2185853; FBS purchased from Gibco; article number: 10099-141; batch number: 2109290CP; PS purchased from Gibco; article number: 15140-122; batch number: 2145451; Trypsin-EDTApurchased from Gibco; article number: 25200-072; batch number: 2085552; CellTiter Glo working solution purchased from Promega; article number: G9683; batch number: 398478; DMSO purchased from VWR AMRESCO; article number: 0231-500ML; batch number: 18C0656168; 384-well spheroid plate purchased from Corning; article number: 3830; batch number: 27519032; white opaque 384-well plate purchased from Corning; article number: 3570; batch number: 26819023; microplate reader purchased from PerkinElmer; model: Envision MLD2105-0020; equipment number 1050369.
NCI-H358 is a KRAS G12C mutant human non-small cell lung cancer cell line, cultured in 10% FBS RPMI-1640+1% PS culture medium; and A549 is a KRAS G12S mutant human lung adenocarcinoma cell line, cultured in 10% FBS F-12K+1% PS culture medium. Cells at logarithmic growth stage were taken, digested with trypsin-EDTA, then collected and counted. H358 was adjusted to 1.8 E4 cells/mL with 2% FBS RPMI-1640 culture medium, and A549 was adjusted to 8.9 E3 cells/mL with 2% FBS F-12K culture medium; 800 (45 μL) H358 or 400 (45 μL) A549 were inoculated respectively in a 384-well spheroid plate and cultured overnight to establish a 3D cell model. A 3.16-fold gradient concentration stock solution of 1000× compound was prepared with DMSO, and diluted 100-fold to 10× compound stock solution with 2% FBS culture medium. On the second day after cell inoculation, 5 μL of 10× compound stock solution was added to each cell culture well, with a final concentration of 1× and a DMSO content of 0.1%. DMSO was used as experimental control (control), and 2% FBS culture medium was used as blank control (blank). After 5 days of compound cell culture, 25 μL of CellTiter-Glo working solution was added to each well, mixed well at 400 rpm and incubated for 30 minutes. After standing at room temperature for 30 minutes, 40 μL of the mixed solution was transferred to a white opaque 384-well plate, and the luminescence chemiluminescence value was read with a microplate reader. The cell proliferation inhibition rate IR (%)=(RLU control -RLU compound)/(RLU control -RLU blank) x100% was calculated. The gradient dilution concentration of the compound and the corresponding cell proliferation inhibition rate were fitted by Prism 6 four-parameter method, and the IC50 value was calculated. The inhibitory activity of the compounds prepared in the above embodiments of the present disclosure on KRAS G12C mutant NCI-H358 cells was 0.0001 μM to 0.5 μM; the inhibitory activity of some compounds on KRAS G12C mutant NCI-H358 cells was 0.001 μM to 0.1 μM or 0.001 μM to 0.05 μM.
(In ATP-based viability assays light output follows the ATP content of the culture.)
As for `C=CC(=O)N1CCN2C(=O)c3c(N4CCN(C5COC5)C[C@H]4C)nc(-c4c(O)cccc4F)c(Cl)c3OC[C@H]2C1` (single isomer, unassigned) [Z239-2], the IC50 was 55.8 nM.

Consider `C=CC(=O)N1CCN2C(=O)c3c(N4C[C@H](O)CC4(C)C)nc(-c4c(O)cccc4F)c(F)c3OC[C@H]2C1` (single isomer, unassigned) [Z256-2], for which the IC50 is 27 nM.

As for `C=CC(=O)N1CCN2C(=O)c3c(N4Cc5cnn(C)c5[C@@H]4C)nc(-c4c(O)cccc4F)c(Cl)c3OC[C@H]2C1` (single isomer, unassigned) [Z292S, trifluoroacetate], the IC50 was found to be 37.3 nM. Under `C=CC(=O)N1CCN2C(=O)C3=C(OC[C@H]2C1)C(C)=C(c1c(O)cccc1F)CN3N1C[C@@H](O)CC1(C)C` (single isomer, unassigned) [Z336-1] stands 43 nM; under `C=CC(=O)N1CCN2C(=O)c3c(N4Cc5nn(C)cc5[C@H]4C)nc(-c4c(O)cccc4F)c(Cl)c3OC[C@H]2C1` (single isomer, unassigned) [Z345-1], 45.2 nM; under `C=CC(=O)N1CCN2C(=O)c3c(N4CCOCC45CCC5)nc(-c4c(O)cccc4F)c(Cl)c3OC[C@H]2C1` [Z90, (6aR)-8-acryloyl-4-chloro-3-(2-fluoro-6-hydroxyphenyl)-1-(8-oxa-5-azaspiro[3.5]nonan-5-yl)-6,6a,7,8,9,10-hexahydro-12H-pyrazino[2,1-c]pyrido[3,4-f][1,4]oxazepin-12-one], 19 nM. Then `C=CC(=O)N1CCN2C(=O)c3c(N4CCCC(C)C4C)nc(-c4c(O)cccc4F)c(Cl)c3OC[C@H]2C1` (stereo partly drawn) [Z99, (6aR)-8-acryloyl-4-chloro-1-(2,3-dimethylpiperidin-1-yl)-3-(2-fluoro-6-hydroxyphenyl)-6,6a,7,8,9,10-hexahydro-12H-pyrazino[2,1-c]pyrido[3,4-f][1,4]oxazepin-12-one], with 26.3 nM; and `C=CC(=O)N1CCN2C(=O)c3c(OCC4N(C)CCC4(C)C)nc(-c4c(O)cccc4F)c(Cl)c3OC[C@H]2C1` (stereo partly drawn) [Z110, (6aR)-8-acryloyl-4-chloro-1-((1,3,3-trimethyltetrahydropyrrol-2-yl)methoxy)-3-(2-fluoro-6-hydroxyphenyl)-6,6a,7,8,9,10-hexahydro-12H-pyrazino[2,1-c]pyrido[3,4-f][1,4]oxazepin-12-one], with 44.9 nM.

On to `C=CC(=O)N1CCN2C(=O)c3c(N4CCOC(C)(C)C4)nc(-c4c(C)ccc5[nH]ncc45)c(F)c3OC[C@H]2C1` [Z238, (6aR)-8-acryloyl-1-(2,2-dimethylmorpholino)-4-fluoro-3-(5-methyl-1H-indazol-4-yl)-6,6a,7,8,9,10-hexahydro-12H-pyrazino[2,1-c]pyrido[3,4-f][1,4]oxazepin-12-one], for which the IC50 is 285 nM. Then `C=CC(=O)N1CCN2C(=O)c3c(N4C[C@@H](C)N(C)[C@@H](C)C4)nc(-c4c(O)cccc4F)c(Cl)c3OC[C@H]2C1` [Z246, (6aR)-8-acryloyl-4-chloro-3-(2-fluoro-6-hydroxyphenyl)-1-((3S,5R)-3,4,5-trimethylpiperazin-1-yl)-6,6a,7,8,9,10-hexahydro-12H-pyrazino[2,1-c]pyrido[3,4-f][1,4]oxazepin-12-one], with 35 nM; and `C=CC(=O)N1CCN2C(=O)c3c(N4C[C@H](C)O[C@@H](C)C4)nc(-c4c(O)cccc4F)c(Cl)c3OC[C@H]2C1` [Z248-1, (6aR)-8-acryloyl-1-((2S,6S)-2,6-dimethylmorpholino)-4-chloro-3-(2-fluoro-6-hydroxyphenyl)-6,6a,7,8,9,10-hexahydro-12H-pyrazino[2,1-c]pyrido[3,4-f][1,4]oxazepin-12-one], with 234 nM. Under `C=CC(=O)N1CCN2C(=O)c3c(N4C(C)COCC4C)nc(-c4c(O)cccc4F)c(Cl)c3OC[C@H]2C1` (stereo partly drawn) [Z252, (6aR)-8-acryloyl-1-(3,5-dimethylmorpholino)-4-chloro-3-(2-fluoro-6-hydroxyphenyl)-6,6a,7,8,9,10-hexahydro-12H-pyrazino[2,1-c]pyrido[3,4-f][1,4]oxazepin-12-one] stands 128 nM; under `C=CC(=O)N1CCN2C(=O)c3c(N4[C@H](C)COC[C@@H]4C)nc(-c4c(O)cccc4F)c(Cl)c3OC[C@H]2C1` [Z252-1, (6aR)-8-acryloyl-1-(3R,5S-dimethylmorpholino)-4-chloro-3-(2-fluoro-6-hydroxyphenyl)-6,6a,7,8,9, 10-hexahydro-12H-pyrazino[2,1-c]pyrido[3,4-f][1,4]oxazepin-12-one], 144 nM. Regarding `C=CC(=O)N1CCN2C(=O)c3c(N4CCOC(C)(C)C4)nc(-c4c(O)cccc4F)c(F)c3OC[C@H]2C1` [Z255, (6aR)-8-acryloyl-1-(2,2-dimethylmorpholino)-4-fluoro-3-(2-fluoro-6-hydroxyphenyl)-6,6a,7,8,9,10-hexahydro-12H-pyrazino[2,1-c]pyrido[3,4-f][1,4]oxazepin-12-one], the IC50 was 32 nM. Then `C=CC(=O)N1CCN2C(=O)c3c(cc(-c4c(O)cccc4F)nc3N3CCOC(C)(C)C3)OC[C@H]2C1` [Z263, (6aR)-8-acryloyl-1-(2,2-dimethylmorpholino)-3-(2-fluoro-6-hydroxyphenyl)-6,6a,7,8,9,10-hexahydro-12H-pyrazino[2,1-c]pyrido[3,4-f][1,4]oxazepin-12-one], with 69 nM; and `C=CC(=O)N1CCN2C(=O)c3c(N4CCOCC4)nc(-c4nc(N)ccc4C(F)(F)F)c(Cl)c3OC[C@H]2C1` [Z267], with 31.3 nM; and `C=CC(=O)N1CCN2C(=O)c3c(N4CCC[C@]4(C)CO)nc(-c4c(O)cccc4F)c(Cl)c3OC[C@H]2C1` [Z279-1], with 185 nM. Under `C=CC(=O)N1CCN2C(=O)c3c(C4=CCN(C)CC4C)nc(-c4c(O)cccc4F)c(Cl)c3OC[C@H]2C1` (stereo partly drawn) [Z304, (6aR)-8-acryloyl-4-chloro-1-(1,3-dimethyl-1,2,3,6-tetrahydropyridin-4-yl)-3-(2-fluoro-6-hydroxyphenyl)-6,6a,7,8,9,10-hexahydro-12H-pyrazino[2,1-c]pyrido[3,4-f]oxazepin-12-one] stands 161 nM; under `C=CC(=O)N1CCN2C(=O)c3c(N4CCC45CCC5)nc(-c4c(O)cccc4F)c(Cl)c3OC[C@H]2C1` [Z309, (6aR)-8-acryloyl-4-chloro-3-(2-fluoro-6-hydroxyphenyl)-1-(1-azaspiro[3.3]heptan-1-yl)-6,6a,7,8,9,10-hexahydro-12H-pyrazino[2,1-c]pyrido[3,4-f][1,4]oxazepin-12-one], 291 nM; under `C=CC(=O)N1CCN2C(=O)c3c(N4CCN5CCC[C@H]5C4)nc(-c4c(O)cccc4F)c(Cl)c3OC[C@H]2C1` [Z317-1, (6aR)-8-acryloyl-4-chloro-3-(2-fluoro-6-hydroxyphenyl)-1-((S)-hexahydropyrrolo[1,2-a]pyrazin-2(1H)-yl)-6,6a,7,8,9,10-hexahydro-12H-pyrazino[2,1-c]pyrido[3,4-f][1,4]oxazepin-12-one], 54.1 nM. Under `C=CC(=O)N1CCN2C(=O)c3c(N4CCOCC4)nc(-c4c(O)cccc4F)c(F)c3OC[C@H]2C1` [Z329, (6aR)-8-acryloyl-1-(morpholino)-4-fluoro-3-(2-fluoro-6-hydroxyphenyl)-6,6a,7,8,9,10-hexahydro-12H-pyrazino[2,1-c]pyrido[3,4-f][1,4]oxazepin-12-one] stands 137 nM.
